Source: article PMC6407917, “Identification of GSK3186899/DDD853651 as a Preclinical Development Candidate for the Treatment of Visceral Leishmaniasis” (Journal of Medicinal Chemistry, 2018)

Key:
Test in all cases: biochemical
Design in all cases: species or system HEK293/K-562/placenta mixed human extract; Kinobeads chemoproteomic competition binding, quantified by TMT LC-MS/MS, dose response up to 20 uM
DSTYK = DSTYK (Homo sapiens, UniProt Q6XUX3)
CDC42BPA = CDC42BPA (Homo sapiens, UniProt Q5VT25)
EPHA7 = EPHA7 (Homo sapiens, UniProt Q15375)
PHKG2 = PHKG2 (Homo sapiens, UniProt P15735)
TNK1 = TNK1 (Homo sapiens, UniProt Q13470)
PIM3 = PIM3 (Homo sapiens, UniProt Q86V86)
MAP2K2 = MAP2K2 (Homo sapiens, UniProt P36507)
FYN = FYN (Homo sapiens, UniProt P06241)
STRADA = STRADA (Homo sapiens, UniProt Q7RTN6)
MAP3K11 = MAP3K11 (Homo sapiens, UniProt Q16584)
STK35 = STK35 (Homo sapiens, UniProt Q8TDR2)
YES1 = YES1 (Homo sapiens, UniProt P07947)
PDPK1 = PDPK1 (Homo sapiens, UniProt O15530)
WEE1 = WEE1 (Homo sapiens, UniProt P30291)
ADK = ADK (Homo sapiens, UniProt P55263)
PKN1 = PKN1 (Homo sapiens, UniProt Q16512)
MELK = MELK (Homo sapiens, UniProt Q14680)
MARK4 = MARK4 (Homo sapiens, UniProt Q96L34)
EPHB4 = EPHB4 (Homo sapiens, UniProt P54760)
CDC37 = CDC37 (Homo sapiens, UniProt Q16543)
CSK = CSK (Homo sapiens, UniProt P41240)

Measured: IC50

Sequence of YES1 (P07947 whole entry): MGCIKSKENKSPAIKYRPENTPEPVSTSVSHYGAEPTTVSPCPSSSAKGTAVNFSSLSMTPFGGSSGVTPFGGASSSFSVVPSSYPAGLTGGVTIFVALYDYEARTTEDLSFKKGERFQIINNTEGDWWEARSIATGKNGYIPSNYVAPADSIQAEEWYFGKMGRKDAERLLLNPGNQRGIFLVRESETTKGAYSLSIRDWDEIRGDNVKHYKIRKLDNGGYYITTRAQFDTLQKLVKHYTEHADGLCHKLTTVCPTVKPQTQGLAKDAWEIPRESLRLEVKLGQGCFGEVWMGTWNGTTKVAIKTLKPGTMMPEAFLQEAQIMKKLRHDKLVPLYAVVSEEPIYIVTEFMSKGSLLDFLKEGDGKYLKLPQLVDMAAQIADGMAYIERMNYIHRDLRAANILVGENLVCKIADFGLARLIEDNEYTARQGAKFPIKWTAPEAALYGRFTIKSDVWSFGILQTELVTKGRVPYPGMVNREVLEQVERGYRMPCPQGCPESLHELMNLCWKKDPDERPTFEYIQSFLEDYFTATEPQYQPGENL
Sequence of MAP2K2 (P36507 whole entry): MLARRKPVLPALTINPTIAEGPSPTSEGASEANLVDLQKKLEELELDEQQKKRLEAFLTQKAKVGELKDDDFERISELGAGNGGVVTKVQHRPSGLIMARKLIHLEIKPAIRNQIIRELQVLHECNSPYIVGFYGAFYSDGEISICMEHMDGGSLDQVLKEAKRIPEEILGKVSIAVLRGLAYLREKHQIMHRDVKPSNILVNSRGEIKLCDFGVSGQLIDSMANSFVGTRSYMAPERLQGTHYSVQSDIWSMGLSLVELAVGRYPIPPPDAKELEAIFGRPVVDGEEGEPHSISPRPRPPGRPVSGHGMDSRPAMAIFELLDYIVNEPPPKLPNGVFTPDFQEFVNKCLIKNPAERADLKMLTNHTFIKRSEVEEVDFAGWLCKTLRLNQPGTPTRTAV
Sequence of STRADA (Q7RTN6 whole entry): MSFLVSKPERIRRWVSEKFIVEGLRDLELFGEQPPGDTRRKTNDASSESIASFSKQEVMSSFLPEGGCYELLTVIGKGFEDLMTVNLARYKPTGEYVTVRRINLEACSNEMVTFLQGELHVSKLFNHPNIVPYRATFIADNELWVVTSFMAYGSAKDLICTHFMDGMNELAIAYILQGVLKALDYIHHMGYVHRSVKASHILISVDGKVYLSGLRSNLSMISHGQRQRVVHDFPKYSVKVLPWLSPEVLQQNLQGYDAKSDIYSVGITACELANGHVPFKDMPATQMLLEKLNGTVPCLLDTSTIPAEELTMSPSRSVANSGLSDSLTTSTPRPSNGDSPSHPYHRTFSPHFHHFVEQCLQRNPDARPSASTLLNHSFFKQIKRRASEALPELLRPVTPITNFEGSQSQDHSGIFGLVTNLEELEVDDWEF
Sequence of CDC37 (Q16543 whole entry): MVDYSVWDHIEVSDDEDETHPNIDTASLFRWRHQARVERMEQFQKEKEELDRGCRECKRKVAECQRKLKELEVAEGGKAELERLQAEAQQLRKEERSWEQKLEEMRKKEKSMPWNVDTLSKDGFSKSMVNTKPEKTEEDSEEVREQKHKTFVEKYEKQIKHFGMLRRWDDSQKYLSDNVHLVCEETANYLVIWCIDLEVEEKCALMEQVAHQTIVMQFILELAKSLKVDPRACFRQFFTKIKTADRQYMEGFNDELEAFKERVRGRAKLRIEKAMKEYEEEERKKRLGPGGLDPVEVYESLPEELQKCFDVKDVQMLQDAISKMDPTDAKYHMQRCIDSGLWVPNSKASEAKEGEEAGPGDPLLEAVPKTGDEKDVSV
Sequence of DSTYK (Q6XUX3 whole entry): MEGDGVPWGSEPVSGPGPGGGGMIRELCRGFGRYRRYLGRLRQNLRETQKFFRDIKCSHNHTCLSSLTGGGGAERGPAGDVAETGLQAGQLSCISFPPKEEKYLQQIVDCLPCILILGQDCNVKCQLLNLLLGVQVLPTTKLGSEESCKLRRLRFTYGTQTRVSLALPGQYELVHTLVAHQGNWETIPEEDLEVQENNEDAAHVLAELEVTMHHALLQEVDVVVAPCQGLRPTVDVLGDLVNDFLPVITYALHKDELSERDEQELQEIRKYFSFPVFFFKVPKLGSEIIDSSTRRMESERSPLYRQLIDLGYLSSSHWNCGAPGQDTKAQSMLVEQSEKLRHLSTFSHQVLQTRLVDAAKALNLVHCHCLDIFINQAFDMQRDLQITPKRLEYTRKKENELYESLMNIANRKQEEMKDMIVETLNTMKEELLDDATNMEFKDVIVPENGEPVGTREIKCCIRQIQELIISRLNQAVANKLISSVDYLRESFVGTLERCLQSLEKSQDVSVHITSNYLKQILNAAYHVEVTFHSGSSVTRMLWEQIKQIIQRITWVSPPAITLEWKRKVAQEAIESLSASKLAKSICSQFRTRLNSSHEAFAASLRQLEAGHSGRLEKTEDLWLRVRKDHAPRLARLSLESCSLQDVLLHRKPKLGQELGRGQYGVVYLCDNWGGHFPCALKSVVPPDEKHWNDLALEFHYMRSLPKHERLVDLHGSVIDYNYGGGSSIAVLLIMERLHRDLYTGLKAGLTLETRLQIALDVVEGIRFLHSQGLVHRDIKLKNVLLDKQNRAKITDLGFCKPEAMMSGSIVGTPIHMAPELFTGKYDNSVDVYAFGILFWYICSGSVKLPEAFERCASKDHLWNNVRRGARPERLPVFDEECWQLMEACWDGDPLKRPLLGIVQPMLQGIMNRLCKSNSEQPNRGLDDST
Sequence of EPHA7 (Q15375 whole entry): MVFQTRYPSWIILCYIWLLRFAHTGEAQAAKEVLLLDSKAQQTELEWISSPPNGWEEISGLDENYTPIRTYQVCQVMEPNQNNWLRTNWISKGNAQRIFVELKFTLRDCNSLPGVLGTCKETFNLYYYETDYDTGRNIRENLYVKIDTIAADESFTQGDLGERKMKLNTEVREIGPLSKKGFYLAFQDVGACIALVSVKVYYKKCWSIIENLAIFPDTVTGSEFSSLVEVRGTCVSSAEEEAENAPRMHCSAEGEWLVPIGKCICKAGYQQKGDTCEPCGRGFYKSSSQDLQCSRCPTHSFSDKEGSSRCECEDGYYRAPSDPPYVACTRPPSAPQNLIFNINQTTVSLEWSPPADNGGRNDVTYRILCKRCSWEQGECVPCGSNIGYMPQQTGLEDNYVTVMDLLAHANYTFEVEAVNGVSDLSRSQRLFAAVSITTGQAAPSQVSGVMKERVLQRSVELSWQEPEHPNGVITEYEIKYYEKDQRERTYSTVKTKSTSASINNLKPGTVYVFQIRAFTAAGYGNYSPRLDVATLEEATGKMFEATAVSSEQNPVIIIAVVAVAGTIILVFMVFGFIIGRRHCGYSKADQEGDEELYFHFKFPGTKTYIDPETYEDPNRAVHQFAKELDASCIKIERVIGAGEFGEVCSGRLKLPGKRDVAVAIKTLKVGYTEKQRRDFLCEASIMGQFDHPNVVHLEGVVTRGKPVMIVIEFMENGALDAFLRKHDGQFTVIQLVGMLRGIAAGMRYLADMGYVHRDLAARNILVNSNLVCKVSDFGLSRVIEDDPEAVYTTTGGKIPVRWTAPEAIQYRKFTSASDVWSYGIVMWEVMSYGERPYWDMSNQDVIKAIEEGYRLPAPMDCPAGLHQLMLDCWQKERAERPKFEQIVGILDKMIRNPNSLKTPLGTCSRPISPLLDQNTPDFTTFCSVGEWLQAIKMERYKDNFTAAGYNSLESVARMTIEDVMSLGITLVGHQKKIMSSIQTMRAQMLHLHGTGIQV
Sequence of MELK (Q14680 whole entry): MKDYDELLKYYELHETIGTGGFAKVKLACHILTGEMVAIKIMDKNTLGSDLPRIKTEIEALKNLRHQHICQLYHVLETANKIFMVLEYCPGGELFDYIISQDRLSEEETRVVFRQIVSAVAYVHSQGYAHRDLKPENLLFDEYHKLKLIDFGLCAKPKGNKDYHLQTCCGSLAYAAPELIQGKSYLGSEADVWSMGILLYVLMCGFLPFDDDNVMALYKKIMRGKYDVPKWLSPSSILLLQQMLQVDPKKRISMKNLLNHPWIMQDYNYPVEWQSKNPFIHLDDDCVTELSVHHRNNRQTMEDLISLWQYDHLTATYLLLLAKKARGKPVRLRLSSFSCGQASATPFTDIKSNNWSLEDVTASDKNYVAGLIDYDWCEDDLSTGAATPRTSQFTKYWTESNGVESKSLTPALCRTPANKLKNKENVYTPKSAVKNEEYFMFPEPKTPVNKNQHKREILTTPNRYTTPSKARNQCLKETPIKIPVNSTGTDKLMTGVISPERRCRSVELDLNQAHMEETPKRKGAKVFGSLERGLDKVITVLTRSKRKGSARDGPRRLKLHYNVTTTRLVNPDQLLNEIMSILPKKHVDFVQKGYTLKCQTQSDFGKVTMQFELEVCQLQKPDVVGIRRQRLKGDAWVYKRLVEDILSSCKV
Sequence of ADK (P55263 whole entry): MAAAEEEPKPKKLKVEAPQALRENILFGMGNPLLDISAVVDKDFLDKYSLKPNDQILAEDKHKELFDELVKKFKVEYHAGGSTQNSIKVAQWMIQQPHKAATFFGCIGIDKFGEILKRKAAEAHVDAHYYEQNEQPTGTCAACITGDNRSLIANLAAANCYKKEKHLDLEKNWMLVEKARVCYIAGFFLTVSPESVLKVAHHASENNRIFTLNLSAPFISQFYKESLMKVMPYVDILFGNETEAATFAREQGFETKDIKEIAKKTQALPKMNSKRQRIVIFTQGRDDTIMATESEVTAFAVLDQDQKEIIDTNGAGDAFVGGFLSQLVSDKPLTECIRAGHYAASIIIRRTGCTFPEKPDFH

COc1ccccc1-c1n[nH]c2nc(N[C@H]3CC[C@H](NS(=O)(=O)CCC(F)(F)F)CC3)nc(OC)c12 [compound 31, 3,3,3-Trifluoro-N-(trans-4-((4-methoxy-3-(2-methoxyphenyl)-1H-pyrazolo[3,4-d]pyrimidin-6-yl)amino)cyclohexyl)propane-1-sulfonamide]
≥ 20 µM: all assays above
